Laboratory results reported in ChEMBL document CHEMBL5385955, “Minor Hydroxylated Triterpenoids Produced in Engineered Yeast by the Enzymes OSC and CYP716s from the Plant Enkianthus chinensis and Their Anti-Inflammatory and Hepatoprotective Activities” (2024).
Activity calls are given as the source filed them. No cut-off for these calls is given here.

Assays:
HepG2 = test: Hepatoprotective activity against acetaminophen-induced cell damage in human HepG2 cells assessed as increase in cell survival at 10 uM incubated for 24 hrs by CCK-8 assay relative to control; type: functional; conditions: read-out: Survival
RAW264.7 [1] = test: Antiinflammatory activity in LPS-induced mouse RAW264.7 cells assessed as reduction in IL-1beta production at 10 to 40 uM incubated for 24 hrs by ELISA; type: functional, cell-based; conditions: dose 10-40 µM
RAW264.7 [2] = test: Antiinflammatory activity in LPS-induced mouse RAW264.7 cells assessed as inhibition of NO production at 10 to 40 uM incubated for 24 hrs by Griess reagent based assay; type: functional, cell-based; conditions: dose 10-40 µM
RAW264.7 [3] = test: Antiinflammatory activity in LPS-induced mouse RAW264.7 cells assessed as reduction in IL-6 mRNA expression incubated for 24 hrs by qPCR analysis; type: functional, cell-based; conditions: dose 10-40 µM
RAW264.7 [4] = test: Antiinflammatory activity in LPS-induced mouse RAW264.7 cells assessed as reduction in IL-6 production at 10 to 40 uM incubated for 24 hrs by ELISA; type: functional, cell-based; conditions: dose 10-40 µM
RAW264.7 [5] = test: Antiinflammatory activity in LPS-induced mouse RAW264.7 cells assessed as reduction in IL-1beta mRNA expression incubated for 24 hrs by qPCR analysis; type: functional, cell-based; conditions: dose 10-40 µM

Structure (SMILES)	viability at 10 µM (HepG2) [%]	other results
C[C@H]1[C@H](C)CC[C@]2(C)CC[C@]3(C)C(=CC[C@@H]4[C@@]5(C)CC[C@H](O)C(C)(C)[C@@H]5CC[C@]43C)[C@H]12	61	
COC(=O)c1cc(OC)c2c(c1-c1c(CO)cc(OC)c3c1OCO3)OCO2 [BICYCLOL]	60	
CC1(C)CC[C@]2(CO)CC[C@]3(C)C(=CC[C@@H]4[C@@]5(C)CC[C@H](O)C(C)(C)[C@@H]5CC[C@]43C)[C@@H]2C1 [ERYTHRODIOL]	61	Activity (RAW264.7 [1]): Active; Activity (RAW264.7 [2]): Active; Activity (RAW264.7 [3]): Dose-Dependent Effect; Activity (RAW264.7 [4]): Active; Activity (RAW264.7 [5]): Dose-Dependent Effect
C[C@H]1[C@H](C)CC[C@]2(CO)CC[C@]3(C)C(=CC[C@@H]4[C@@]5(C)CC[C@H](O)C(C)(C)[C@@H]5CC[C@]43C)[C@H]12 [UVAOL]	61	
CC1(C)CC[C@]2(C)CC[C@]3(C)C(=CC[C@@H]4[C@@]5(C)CC[C@H](O)C(C)(C)[C@@H]5CC[C@]43C)[C@@H]2C1 [beta-AMYRIN]	61	
